# Test results from publication PMC9230573 (Frontiers in Pharmacology, 2022).
# Where “and” joins values, the source holds several entries; their conditions need not be identical. Identical values can stand only once. Entries after “also recorded” stand apart in the source; their conditions may differ. Where a SMILES comes first, the peptide text is derived from it. Bridges are numbered along the chain shown (N, C = ends).
# Legend:
# [1] = system: L-type (Cav1.2) calcium channels; type: cell-based
# [2] = system: locomotor activity; details: rat, in vivo
# [3] = system: GABABR-coupled Cav2.2 channels (human GABAB receptor R1 + R2 subunits and Cav2.2); type: cell-based; details: SEM
# [4] = system: rat CCI pain model; details: in vivo
# [5] = system: voltage-gated potassium channels in DRG neurons; type: cell-based, rat
# [6] = system: voltage-gated sodium channels in DRG neurons; type: cell-based, rat
# [7] = molecular target: rat α3β2 nAChR (Rattus norvegicus, UniProt P04757+P12390); assay: cell-based
# rat α3β2 nAChR, sequence (P04757 26-499 limits assumed): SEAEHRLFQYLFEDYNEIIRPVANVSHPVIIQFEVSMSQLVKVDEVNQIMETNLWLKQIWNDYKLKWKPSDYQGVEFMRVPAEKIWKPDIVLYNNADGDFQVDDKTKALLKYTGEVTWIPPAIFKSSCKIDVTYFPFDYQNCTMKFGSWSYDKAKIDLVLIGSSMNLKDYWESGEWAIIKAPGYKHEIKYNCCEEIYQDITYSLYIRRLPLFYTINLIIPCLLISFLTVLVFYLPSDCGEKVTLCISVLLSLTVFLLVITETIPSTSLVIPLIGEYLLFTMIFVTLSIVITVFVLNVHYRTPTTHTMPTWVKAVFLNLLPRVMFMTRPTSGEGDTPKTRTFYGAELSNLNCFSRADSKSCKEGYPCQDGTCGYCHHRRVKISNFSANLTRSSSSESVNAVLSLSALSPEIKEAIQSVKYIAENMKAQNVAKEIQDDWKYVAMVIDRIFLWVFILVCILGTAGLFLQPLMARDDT
# rat α3β2 nAChR, sequence (P12390 25-500 limits assumed): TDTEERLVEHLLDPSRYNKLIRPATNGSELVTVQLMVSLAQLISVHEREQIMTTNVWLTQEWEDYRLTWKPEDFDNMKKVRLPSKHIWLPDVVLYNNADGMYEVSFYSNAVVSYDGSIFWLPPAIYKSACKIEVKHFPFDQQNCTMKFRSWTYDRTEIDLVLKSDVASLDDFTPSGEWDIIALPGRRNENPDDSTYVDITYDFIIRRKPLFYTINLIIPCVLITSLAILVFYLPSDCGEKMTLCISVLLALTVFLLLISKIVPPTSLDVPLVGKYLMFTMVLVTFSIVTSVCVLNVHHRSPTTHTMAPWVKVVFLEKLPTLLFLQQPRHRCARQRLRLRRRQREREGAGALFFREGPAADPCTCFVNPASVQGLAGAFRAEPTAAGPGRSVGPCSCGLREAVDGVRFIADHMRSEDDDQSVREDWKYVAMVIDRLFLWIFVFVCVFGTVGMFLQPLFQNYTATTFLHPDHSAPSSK
# [8] = system: rat PNL pain model; details: in vivo
# [9] = system: T-type (Cav3.2) calcium channels; type: cell-based
Compound,inhibition of L-type calcium channels (in words) [1],effect on locomotor activity (in words) [2],percent inhibition of IBa at GABABR-coupled Cav2.2 channels [3] [%],increase in pain threshold [4],pain threshold elevation percentage [4],inhibition of voltage-gated potassium channels (in words) [5],inhibition of voltage-gated sodium channels (in words) [6],Hillslope [7],IC50 [7] [µM],elevation value of the pain threshold [8] [g],pain threshold [8],inhibition of T-type calcium channels (in words) [9],increased mechanical pressure threshold (elevation value of pain threshold) [8] [g]
"CC[C@H](C)[C@@H]1NC(=O)[C@@H]2CCCN2C(=O)[C@@H]2CSSC[C@H](NC(=O)[C@@H](N)CC(N)=O)C(=O)N[C@@H](CSSC[C@@H](C(N)=O)NC(=O)[C@H](CC(N)=O)NC(=O)[C@H](Cc3ccccc3)NC(=O)[C@H](CCCNC(=N)N)NC(=O)[C@H](CO)NC(=O)[C@H](Cc3ccc(O)cc3)NC(=O)[C@H](CC(=O)O)NC1=O)C(=O)N[C@@H](CCSC)C(=O)N[C@@H](Cc1ccccc1)C(=O)N[C@@H](Cc1c[nH]cn1)C(=O)N[C@@H]([C@@H](C)O)C(=O)N2 [Vt1.27] (H-NCCMFHTCPIDYSRFNC-NH2; disulfide 2-8, 3-17)",did not significantly inhibit,did not affect locomotor activity,19 ± 2,67.2 g and 40.0 g,56.4 ± 14.9% and 33.3 ± 15.3%,inactive; also recorded: did not significantly inhibit,inactive; also recorded: did not significantly inhibit,-0.484,1.16,37.6,126.2 ± 9.16 g and 138.8 ± 23.6 g and 165.0 ± 21.4 g,did not significantly inhibit,–
Vc1.1 [reference compound],–,–,–,–,44.3 ± 9.1% and 26.1 ± 10.0%,–,–,–,–,7.4,–,–,71.2
